According to patent publication US12570675B2, “Boronic acid compounds” (LG CHEM, LTD., priority 2020, dated 2026):

Molecular target: Proteasome chymotrypsin-like activity (S26 protein from RPMI8226 cells) (Homo sapiens, UniProt P28074)
Type: biochemical
Settings: S26 protein from RPMI8226 cell extract 2 ug/well, substrate 20 uM, 37° C., 90 minutes; read-out: Proteasome chymotrypsin-like activity inhibition IC50
Outline: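 RPMI8226 myeloma cell lysate (S26 fraction, 20 mM Tris-HCl pH 8.0; 2 ug/well) incubated with compound serially diluted from 10 uM (0.5% DMSO) and 20 uM Suc-LLVY-AMC (chymotrypsin-like) or Z-LLE-AMC (caspase-like) for 90 min at 37 °C. Fluorescence read; IC50 from % of uninhibited signal.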

Proteasome chymotrypsin-like activity (S26 protein from RPMI8226 cells), sequence (P28074 60-263 limits assumed): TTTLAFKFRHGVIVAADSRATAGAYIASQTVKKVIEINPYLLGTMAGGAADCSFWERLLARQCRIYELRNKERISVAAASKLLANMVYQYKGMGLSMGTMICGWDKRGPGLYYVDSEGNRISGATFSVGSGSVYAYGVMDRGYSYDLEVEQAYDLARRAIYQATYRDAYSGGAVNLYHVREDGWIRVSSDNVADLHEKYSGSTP

Compound	IC50 [nM]
CC(C)C[C@H](NC(=O)C1(Cc2ccccc2)CC(COCc2cc(Cl)ccc2Cl)=NO1)B(O)O (stereo partly drawn) [Example 45, ((1R)-1-(5-benzyl-3-(((2,5-dichlorobenzyl)oxy)methyl)-4,5-dihydroisoxazol-5-carboxamido)-3-methylbutyl)boronic acid]	< 10
CC(C)C[C@H](NC(=O)C1CC(CNC(=O)Cc2ccccc2)=NO1)B(O)O (stereo partly drawn) [Example 79, ((1R)-3-methyl-1-(3-((2-phenylacetamido)methyl)-4,5-dihydroisoxazol-5-carboxamido)butyl)boronic acid]	< 100
Cc1cc(C(=O)NCC2=NOC(C(=O)N[C@@H](CC(C)C)B(O)O)C2)no1 (stereo partly drawn) [Example 81, ((1R)-3-methyl-1-(3-((5-methylisoxazol-3-carboxamido)methyl)-4,5-dihydroisoxazol-5-carboxamido)butyl)boronic acid]	< 250
CC(C)C[C@H](NC(=O)C1(Cc2cccc(Cl)c2)CC(CNC(=O)c2cc(C(C)C)on2)=NO1)B(O)O (stereo partly drawn) [Example 223, ((1R)-1-(5-(3-chlorobenzyl)-3-((5-isopropylisoxazol-3-carboxamido)methyl)-4,5-dihydroisoxazol-5-carboxamido)-3-methylbutyl)boronic acid]	< 10
CC(C)C[C@H](NC(=O)C1(Cc2ccccc2)CC(CNC(=O)c2cc(C(C)C)on2)=NO1)B(O)O (stereo partly drawn) [Example 182, ((1R)-1-(5-benzyl-3-((5-isopropylisoxazol-3-carboxamido)methyl)-4,5-dihydroisoxazol-5-carboxamido)-3-methylbutyl)boronic acid]	< 10
Cc1cccc(CC2(C(=O)N[C@@H](CC(C)C)B(O)O)CC(CNC(=O)c3cc(-c4ccccc4)nn3C(C)C)=NO2)c1 (stereo partly drawn) [Example 236, ((1R)-1-(3-((1-isopropyl-3-phenyl-1H-pyrazol-5-carboxamido)methyl)-5-(3-methylbenzyl)-4,5-dihydroisoxazol-5-carboxamido)-3-methylbutyl)boronic acid]	< 10
CC(C)C[C@H](NC(=O)C1(Cc2ccccc2)CC(CNC(=O)c2cnn(C)c2)=NO1)B(O)O (stereo partly drawn) [Example 220, ((1R)-1-(5-benzyl-3-((1-methyl-1H-pyrazol-4-carboxamido)methyl)-4,5-dihydroisoxazol-5-carboxamido)-3-methylbutyl)boronic acid]	< 10
CC(C)C[C@H](NC(=O)C1(Cc2ccccc2)CC(CNC(=O)CCc2ccccc2)=NO1)B(O)O (stereo partly drawn) [Example 110, ((1R)-1-(5-benzyl-3-((3-phenylpropanamido)methyl)-4,5-dihydroisoxazol-5-carboxamido)-3-methylbutyl)boronic acid]	< 25
CC(C)C[C@H](NC(=O)C1(Cc2ccccc2)CC(CNCc2cc(Cl)ccc2Cl)=NO1)B(O)O (stereo partly drawn) [Example 146, ((1R)-1-(5-benzyl-3-(((2,5-dichlorobenzyl)amino)methyl)-4,5-dihydroisoxazol-5-carboxamido)-3-methylbutyl)boronic acid]	< 25
CC(C)C[C@H](NC(=O)C1(Cc2ccccc2)CC(COCc2cccc(Br)c2)=NO1)B(O)O (stereo partly drawn) [Example 52, ((1R)-1-(5-benzyl-3-(((3-bromobenzyl)oxy)methyl)-4,5-dihydroisoxazol-5-carboxamido)-3-methylbutyl)boronic acid]	< 10
CC(=O)Nc1ccc(C2=NOC(C(=O)N[C@@H](CC(C)C)B(O)O)C2)cc1 (stereo partly drawn) [Example 16, ((1R)-1-(3-(4-acetamidophenyl)-4,5-dihydroisoxazol-5-carboxamido)-3-methylbutyl)boronic acid]	< 250
CC(C)C[C@H](NC(=O)C1CC(c2cccc(C(C)(C)C)c2)=NO1)B(O)O (stereo partly drawn) [Example 14, ((1R)-1-(3-(3-(tert-butyl)phenyl)-4,5-dihydroisoxazol-5-carboxamido)-3-methylbutyl)boronic acid]	< 250
Cc1nn(C(C)C)cc1C(=O)NCC1=NOC(Cc2ccccc2)(C(=O)N[C@@H](CC(C)C)B(O)O)C1 (stereo partly drawn) [Example 206, ((1R)-1-(5-benzyl-3-((1-isopropyl-3-methyl-1H-pyrazol-4-carboxamido)methyl)-4,5-dihydroisoxazol-5-carboxamido)-3-methylbutyl)boronic acid]	< 10
COc1cccc(CC2(C(=O)N[C@@H](CC(C)C)B(O)O)CC(CNC(=O)c3cc(C(C)(C)C)nn3C(C)C)=NO2)c1 (stereo partly drawn) [Example 231, ((1R)-1-(3-((3-(tert-butyl)-1-isopropyl-1H-pyrazol-5-carboxamido)methyl)-5-(3-methoxybenzyl)-4,5-dihydroisoxazol-5-carboxamido)-3-methylbutyl)boronic acid]	< 10
CC(C)C[C@H](NC(=O)C1CC(c2ccc3ncccc3c2)=NO1)B(O)O (stereo partly drawn) [Example 30, ((1R)-3-methyl-1-(3-(quinolin-6-yl)-4,5-dihydroisoxazol-5-carboxamido)butyl)boronic acid]	< 1000
CC(C)C[C@H](NC(=O)C1CC(c2cc3ccccc3cn2)=NO1)B(O)O (stereo partly drawn) [Example 22, ((1R)-1-(3-(isoquinolin-3-yl)-4,5-dihydroisoxazol-5-carboxamido)-3-methylbutyl)boronic acid]	< 250

Further lines, results first:

IC50 [nM]	Compound
< 10	CC(C)C[C@H](NC(=O)C1(Cc2ccccc2)CC(CNC(=O)c2ccnc(Cl)c2)=NO1)B(O)O (some centres unmarked) [Example 311]
< 10	COc1cccc(COCC2=NOC(Cc3ccccc3)(C(=O)N[C@@H](CC(C)C)B(O)O)C2)c1 (some centres unmarked) [Example 272]
< 10	N#Cc1cccc(COCC2=NOC(Cc3ccccc3)(C(=O)N[C@@H](Cc3ccccc3)B(O)O)C2)c1 (stereo partly drawn) [Example 265, ((1R)-1-(5-benzyl-3-(((3-cyanobenzyl)oxy)methyl)-4,5-dihydroisoxazol-5-carboxamido)-2-phenylethyl)boronic acid]
< 25	O=C(N[C@@H](Cc1ccccc1)B(O)O)C1(Cc2ccccc2)CC(COCc2ccccn2)=NO1 (stereo partly drawn) [Example 269, ((1R)-1-(5-benzyl-3-((pyridin-2-ylmethoxy)methyl)-4,5-dihydroisoxazol-5-carboxamido)-2-phenylethyl)boronic acid]
< 10	O=C(N[C@@H](Cc1ccccc1)B(O)O)C1(Cc2ccccc2)CC(COCc2cccn3ccnc23)=NO1 (stereo partly drawn) [Example 267, ((1R)-1-(5-benzyl-3-((imidazo[1,2-a]pyridin-8-ylmethoxy)methyl)-4,5-dihydroisoxazol-5-carboxamido)-2-phenylethyl)boronic acid]
< 10	CC(C)C[C@H](NC(=O)C1(Cc2ccccc2)CC(CNC(=O)c2cccc(C(F)(F)F)c2)=NO1)B(O)O (some centres unmarked) [Example 280]
< 10	COc1ccc(C(=O)NCC2=NOC(Cc3ccccc3)(C(=O)N[C@@H](CC(C)C)B(O)O)C2)cc1 (some centres unmarked) [Example 282]
< 10	CC(C)C[C@H](NC(=O)C1(Cc2ccccc2)CC(COc2cccc3ccccc23)=NO1)B(O)O (some centres unmarked) [Example 278]
< 10	CC(C)C[C@H](NC(=O)C1(Cc2ccccc2)CC(CNC(=O)c2cccn3cnnc23)=NO1)B(O)O (some centres unmarked) [Example 305]
< 10	Cc1nn(C(C)C)c(C(=O)NCC2=NOC(Cc3cccc(Cl)c3)(C(=O)N[C@@H](CC(C)C)B(O)O)C2)c1Cl (stereo partly drawn) [Example 248, ((1R)-1-(3-((4-chloro-1-isopropyl-3-methyl-1H-pyrazol-5-carboxamido)methyl)-5-(3-chlorobenzyl)-4,5-dihydroisoxazol-5-carboxamido)-3-methylbutyl)boronic acid]
